Literature values, collected in US20190156929A1, “METHODS OF IMPROVING PATIENT COMPLIANCE TO TREAT CONTRAST-INDUCED INJURY” (Saghmos Therapeutics, Inc., priority 2017, published 2019).

Test system: contrast-induced nephropathy in patients undergoing coronary angiography/angioplasty
Details: four published Phase 2 trials; compared with isotonic saline; patients e.g. with high serum creatinine levels

SMILES: COc1ccc(CN2CCNCC2)c(OC)c1OC [Trimetazidine]
- reduction of the risk of contrast-induced nephropathy (CIN): more effective than isotonic saline in reducing the risk of contrast-induced nephropathy (CIN)
